The source of these data is paper PMC9421654, “Discovery of Substituted Di(pyridin-2-yl)-1,2,4-thiadiazol-5-amines as Novel Macrofilaricidal Compounds for the Treatment of Human Filarial Infections” (Journal of Medicinal Chemistry, 2022).

SMILES strings stand for the structures.

Series [1] deals with O. gutturosa adult male worms. Put plainly: O. gutturosa adult worm ex vivo assay, motility. Type of series: cell-based, Onchocerca gutturosa. Particulars: Onchocerca gutturosa, read-out: O. gutturosa EC50 μM (SD), ex vivo adult worm motility reduction; SD in brackets. The procedure, abridged: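 Adult male O. gutturosa from naturally infected cattle were cultured in supplemented MEM at 37 °C, 5% CO2, with four worms per concentration in serial 1-in-4 dilutions. Motility (0–10 scale) was scored every 24 h to 120 h. EC50 (geomean, n=2) for motility reduction came from 4PL fits, and viability was checked by MTT at 120 h.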

Series [2] relates to O. gutturosa adult male worms. Put plainly: O. gutturosa adult worm ex vivo assay, MTT/formazan viability. Type of series: cell-based, Onchocerca gutturosa. Conditions: Onchocerca gutturosa, supplement; SD in brackets in the PDF table; read-out: O. gutturosa EC50 (uM) MTT viability inhibition. A digest of the protocol: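 Adult male worms from naturally infected Gambian cattle were kept individually in MEM with 10% newborn calf serum at 37 °C, 5% CO2; four worms per concentration. Motility was scored 0-10 every 24 h to 120 h as a percentage of maximum, with ≥50% reduction versus untreated counted active. Afterwards, MTT (0.5 mg/mL, 30 min) formazan was read at 490 nm.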

Series [3] is described as follows: Liver S9 metabolic stability assay, rat. The format is in vitro ADME. Conditions: 3 μM, 60 min. The procedure, abridged: (§1)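 Rat and human liver S9 (0.75 and 1.2 mg/ml) with 1 mM NADPH, 0.5 mM UDPGA, 2.5 mM GSH, 0.05 mg/ml PAPS, 3µM substrate, 60 min at 37 °C in Tris/MgCl2 pH 7.4. Mouse microsomes 0.3 mg/mL, 1 mM NADPH, 3µM, 30 min, phosphate pH 7.4. LC-MS/MS, % remaining, triplicate.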

Series [4] is described as follows: Liver S9 metabolic stability assay, human. The format is in vitro ADME. Particulars: 3 μM, 60 min. A digest of the protocol:
as §1

A short description of another series: Mouse pharmacokinetics. Type of series: in vivo. Conditions: male CD-1 mouse, PO 30 mg/kg suspension. From the text:
All animal experiments were approved by the Institutional Animal Care and Use Committee (IACUC) of Bristol Myers Squibb.

The test system of the next series is THLE-2 cells. The series can be described thus: THLE-2 cytotoxicity assay (ATP). Particulars: Homo sapiens, THLE-2, 24 h, read-out: THLE IC50. A digest of the protocol: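 THLE-2 cells in supplemented LHC-8 medium were exposed for 24 or 72 h to final concentrations of 0.01–300 μM. Viability was read as ATP by CellTiter-Glo luminescence and normalized to DMSO vehicle. IC50 came from nonlinear regression of dose-response curves.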

Series [5] deals with L. sigmodontis adult worms. Set-up: method as in PMID 35834918. Particulars: infected mice; cited from earlier work.

Regarding `COc1ccc(Nc2nc(-c3ccccn3)cs2)nc1` [Compound 1], the EC50 in series [1] stood at 0.27 µM. Besides, in series [2], the EC50 is 0.94 µM. For the same compound, the “Rat S9 metabolic stability” value in series [3] came to 51 % remaining. Further, the “Human S9 metabolic stability” value in series [4] is 59 % remaining. Moreover, in the series “Mouse pharmacokinetics”, the area under the curve AUC(0-inf) came out at 1.58 ± 0.27 µM·h, the Cmax was found to be 690 ± 180 nM and the Tmax worked out at 30 ± 0 min. Further, the IC50 in the series on THLE-2 cells is 72400 nM. In addition, the “reduction of adult L. sigmodontis worms” value in series [5] is 68%.
